# Results from patent US20080120731A1, “Transgenic Animal Models for Neurodevelopmental Disorders” (priority 2004, published 2008).
# Where two headings read alike, the source gives them in different places.
# Assays:
# [1] = system: APH1BC ^−/− mice; assay: Locomotor activity (infrared beam breaks in activity monitor) after amphetamine; details: 3 μg/kg intraparietally
# [2] = system: APH1BC ^−/− mice; assay: Open field locomotor activity (total distance traveled) after apomorphine; details: 2 μg/kg subcutaneously; for activity at 0.002 mg/kg: Mus musculus, sc, 10 min
# [3] = system: APH1BC^−/− mice; assay: Prepulse inhibition (PPI) of acoustic startle after antipsychotic injection; assay type: in vivo
# Description: Schizophrenia is a complex disease characterized by delusions and hallucinations (so-called positive symptoms), affective and social disturbances (negative symptoms), but also by cognitive deficits. Disturbed information processing, and more specifically an impairment in the filtering of irrelevant stimuli, is thought to contribute to the disease phenotype by causing “sensory flooding”, which may lead to cognitive fragmentation. A psychophysical measure of (pre-attentive) information filtering is “prepulse inhibition” (PPI). […] The strength of this reflex response is read out by recording the amplitude of the eye-blink response that is part of the startling reaction. This way, the amplitude of the eye-blink response is a measure of the efficiency of the coupling of the sensory stimulus to the motor reflex programme. If the startle stimulus is preceded by a weak, non-startling “prepulse stimulus”, e.g. a tone just above background noise levels, the amplitude of the eye-blink response to the startle stimulus is strongly diminished in normal individuals. […] The “% prepulse inhibition (PPI)” is quantified as: 100−((A2/A1)*100), with A1 being the amplitude of the response to the startle stimulus and A2 the amplitude of the response to the same startle stimulus preceded by the prepulse stimulus. […] In rodents the motor reaction to a startle stimulus is quantified by placing mice into a restraining tube in a sound-proof cabin mounted onto a pressure sensitive platform. Upon presentation of the startling sound, the mouse flinches and the pressure it exerts via its limbs is recorded quantitatively as a ballistogram that can be analysed using appropriate software. This way, the effect of a preceding prepulse on the flinching reaction to a startle stimulus can be calculated.
# For all trials, background noise was 70 db, the prepulse preceded the startle stimulus by 100 ms, the prepulse stimuli lasted 20 ms and the startle stimuli lasted 60 ms. […] For each of the four different combinations of prepulse and startle stimulus, the % PPI was calculated using the formula described above. […]
smiles,measurement,setting,value
"CC(N)Cc1ccccc1 (stereo not shown) [amphetamine, Amphetamine]","reaction of APH1BC ^−/− mice versus wild-type littermates (rise in activity, maximal activity, total activity over two hours)","[1]; p=0,06 for genotype effect",reacted more strongly
same,time of peak locomotor activity after injection,[1]; […],35 to 40 min
same,locomotor activity after drug administration,"[1]; […], monitored 2 h after injection",rose strongly and continuously
CN1CCc2cccc3c2[C@H]1Cc1ccc(O)c(O)c1-3 [apomorphine],reaction of APH1BC ^−/− mice versus wild-type littermates,"[2]; p=0,045 two-tailed student's t test",reacted more strongly
same,activity at 0.002 mg/kg,"[2]; read-out: residual activity (distance APO/distance placebo)*100%, APH1BC −/− mice, 10 min open field",27%
same,activity at 0.002 mg/kg,"[2]; read-out: residual activity (distance APO/distance placebo)*100%, wild type mice, 10 min open field",50%
same,effect on locomotion (total distance traveled in open field),"[2]; […], 10 min open field, p<0,001 for treatment effect",strong inhibition of locomotion
"O=C(CCCN1CCC(O)(c2ccc(Cl)cc2)CC1)c1ccc(F)cc1 [haloperidol, Haloperidol]",PPI in APH1BC^−/− mice relative to wild type levels,"[3]; APH1BC^−/− mice, pp 74/p110 and pp 78/p110 trials, 1 μg/kg injected intra-parietally, PPI measured 45 min after injection",essentially normalized
same,effects on (improvements of) PPI in the p100 trials,"[3]; p100 trials, 1 μg/kg intra-parietally, 45 min after injection",small but insignificant effects
same,wild type PPI levels compared to placebo-injected animals,"[3]; wild type littermates, pp74/p110 and pp 78/p110 trials, 1 μg/kg intra-parietally, 45 min after injection",significantly elevated
